By melting point is commonly meant the temperature, or range, at which the solid turns liquid.

Like-named read-outs stand apart in the source and are kept apart here.

Here are results for 24 compounds from patent US6727206B2, “Substituted aryl ketones” (Bayer Aktiengesellschaft, priority 1999, dated 2004).

For data set [1], the system named is crop plants, such as maize. The data set is described as follows: Post-emergence test, tolerance by crop plants. It is filed as in vivo. Conditions: rated after three weeks. From the text: (§1) After three weeks, the degree of damage to the plants is rated in % damage in comparison to the development of the untreated control.
A short description of data set [2]: logP determination by HPLC on reversed-phase column (C 18), EEC directive 79/831 Annex V.A8. It is filed as physicochemical. To be noted: for logP: Table 1; label a): acidic range. The protocol:
Temperature: 43° C. (a) Mobile phases for the determination in the acidic range: 0.1% aqueous phosphoric acid, acetonitrile; linear gradient of 10% acetonitrile to 90% acetonitrile—the corresponding data in Table 1 are labelled ^a). (b) Mobile phases for the determination in the neutral range: 0.01 molar aqueous phosphate buffer solution, acetonitrile, linear gradient from 10% acetonitrile to 90% acetonitrile—the corresponding data in Table 1 are labelled ^b).

In data set [3] the test system is weeds. The data set is described as follows: Post-emergence test, activity against weeds. It is filed as in vivo. Conditions: test plants of 5 to 15 cm sprayed, rated after three weeks.
From the text: as §1

Data set [4] concerns crop plants, such as cotton, maize, soya and wheat. The data set is described as follows: Pre-emergence test, tolerance by crop plants. It is filed as in vivo. To be noted: rated after three weeks.
From the text: (§2) Seeds of the test plants are sown in normal soil.
as §1

Data set [5] relates to weeds. Nature of the data set: Pre-emergence test, activity against weeds. Conditions: soil sprayed 24 hours after sowing, rated after three weeks. In kind it is in vivo.
From the text: as §2, §1

The mark [6] stands for this setting: 0.1% aqueous phosphoric acid/acetonitrile gradient, 43° C.

In turn, `Cn1c(C(S)c2c(Cl)ccc(C(=O)C3C(=O)CCCC3=O)c2Cl)n[nH]c1=O` (stereo not shown) came in with a melting point of 187 °C.

For the compound `CCn1ncc(C(=O)c2ccc(Sc3n[nH]c(=O)n3C)cc2Cl)c1O`, the melting point came to 216 °C.

`Cn1c(Sc2cc(C(F)(F)F)ccc2C(=O)C2C(=O)CCCC2=O)n[nH]c1=O` [Example 1, 2-[2-[(4-methyl-5-oxo-4,5-dihydro-1H-1,2,4-triazol-3-yl)-sulphanyl]-4-trifluoromethyl-benzoyl]-1,3-cyclohexanedione]: the “tolerance by crop plants” value in data set [1] and in data set [4] was “tolerated well” each time. Besides, the chromatographic logP in data set [2] (reversed-phase HPLC column (C 18), Example 1, mobile phase range not labelled, read-out: log P) was 2. The “activity against weeds (degree of damage)” value in the data set on weeds [3] and in the data set with weeds [5] was “strong activity” throughout.

As to `Cn1nc(Sc2ccc(C(=O)C3C(=O)CCCC3=O)c(Cl)c2)n(C)c1=O` [Example 6], the logP entry in data set [2] (setting [6]) is “logP = 2.08^a)”.

As to `Cc1nn(C)c(O)c1C(=O)c1ccc(Sc2nn(C)c(=O)n2C)cc1Cl` [Example 9], the logP result in data set [2] (setting [6]) is listed as “logP = 1.34^a)”.

Regarding `Cn1nc(S(=O)(=O)c2ccc(C(=O)C3C(=O)CCCC3=O)c(Cl)c2)n(C)c1=O` [Example 13], the logP entry in data set [2] (setting [6]) is “logP = 2.09^a)”.

In the case of `Cn1c(S(=O)(=O)c2ccc(C(=O)C3C(=O)CCCC3=O)c(Cl)c2)n[nH]c1=O` [Example 14], the logP entry in data set [2] (setting [6]) is “logP = 1.88^a)”.

Turning to `Cn1nc(Sc2cc(C(F)(F)F)ccc2C(=O)C2C(=O)CCCC2=O)n(C)c1=O` [Example 15], the “tolerance by crop plants” value in data set [1] and in data set [4] was “tolerated well” throughout. Moreover, the “activity against weeds (degree of damage)” value in the data set on weeds [3] and in the data set on weeds [5] was “strong activity” throughout.

Turning to `Cn1nc(SCc2c(Cl)ccc(C(=O)C3C(=O)CCCC3=O)c2Cl)n(C)c1=O` [Example 20], in data set [2] (setting [6]), the logP entry is “logP = 2.24^a)”.

`Cn1c([S+]([O-])Cc2c(Cl)ccc(C(=O)C3C(=O)CCCC3=O)c2Cl)n[nH]c1=O` (stereo not shown) [Example 22, 2-[2,4-dichloro-3-[(4-methyl-5-oxo-4,5-dihydro-1H-1,2,4-triazol-3-yl)-sulphinylmethyl]-benizoyl]-1,3-cyclohexanedione]: the chromatographic logP in data set [2] (reversed-phase HPLC column (C 18); Table 1; label a): acidic range, 0.1% aqueous phosphoric acid/acetonitrile gradient, 43° C.) came out at 1.6.

In the case of `Cn1nc(S(=O)(=O)Cc2c(Cl)ccc(C(=O)C3C(=O)CCCC3=O)c2Cl)n(C)c1=O` [Example 23], the logP entry in data set [2] (setting [6]) is on record as “logP = 2.09^a)”.

With `Cn1c(S(=O)(=O)Cc2c(Cl)ccc(C(=O)C3C(=O)CCCC3=O)c2Cl)n[nH]c1=O` [Example 25], the logP entry in data set [2] (setting [6]) is listed as “logP = 1.87^a)”.

Take `Cn1c([S+]([O-])Cc2c(Cl)ccc(C(=O)C3C(=O)CCCC3=O)c2Cl)n[nH]c1=O` (stereo not shown) [Example 28]: the logP result in data set [2] (setting [6]) was “logP = 1.61^a)”.

As to `CCn1nc(Sc2ccc(C(=O)C3C(=O)CCCC3=O)c(Cl)c2)n(C)c1=O` [Example 47], the logP result in data set [2] (setting [6]) is “logP = 2.34^a)”.

`CCCn1nc(Sc2ccc(C(=O)C3C(=O)CCCC3=O)c(Cl)c2)n(C)c1=O` [Example 49]: the logP result in data set [2] (setting [6]) was “logP = 2.63^a)”.

Consider `C=CCn1nc(Sc2ccc(C(=O)C3C(=O)CCCC3=O)c(Cl)c2)n(C)c1=O` [Example 51], for which the logP entry in data set [2] (setting [6]) is reported as “logP = 2.47^a)”.

`C#CCn1nc(Sc2ccc(C(=O)C3C(=O)CCCC3=O)c(Cl)c2)n(C)c1=O` [Example 53]: the logP entry in data set [2] (setting [6]) is “logP = 2.37^a)”.

On to `Cn1c(Sc2ccc(C(=O)C3C(=O)CCCC3=O)c(Cl)c2)nn(CC2CC2)c1=O` [Example 55], for which the logP result in data set [2] (setting [6]) was “logP = 2.72^a)”.

On to `Cn1c(Sc2ccc(C(=O)C3C(=O)CCCC3=O)c(Cl)c2)nn(Cc2ccccc2)c1=O` [Example 57], for which the logP result in data set [2] (setting [6]) is reported as “logP = 3.04^a)”.

Consider `Cn1nc(S(=O)(=O)c2cc(C(F)(F)F)ccc2C(=O)C2C(=O)CCCC2=O)n(C)c1=O` [Example 68], for which, in data set [2] (setting [6]), the logP result was “logP = 1.85^a)”.

Take `CCn1ncc(C(=O)c2ccc(C(F)(F)F)cc2S(=O)(=O)c2nn(C)c(=O)n2C)c1O` [Example 69]: in data set [2] (setting [6]), the logP result is “logP = 1.72^a)”.

Take `Cn1nc([S+]([O-])Cc2cc(C(F)(F)F)ccc2C(=O)C2C(=O)CCCC2=O)n(C)c1=O` (stereo not shown) [Example 70]: in data set [2] (setting [6]), the logP result is reported as “logP = 1.95^a)”.

Consider `CCn1ncc(C(=O)c2ccc(C(F)(F)F)cc2C[S+]([O-])c2nn(C)c(=O)n2C)c1O` (stereo not shown) [Example 71], for which the logP entry in data set [2] (setting [6]) was “logP = 1.77^a)”.

Compound `Cn1nc(SCc2cc(C(F)(F)F)ccc2C(=O)O)n(C)c1=O` [II-9, 2-[(4,5-dihydro-1,4-dimethyl-5-oxo-1H-1,2,4-triazol-3-yl)-sulphanylmethyl]-4-trifluoromethyl-benzoic acid] registered a chromatographic logP in data set [2] (reversed-phase HPLC column (C 18), Table 2 (starting materials of formula II); label a): acidic range) of 1.94.
